In brackets after ≈: the same amount, converted by molar mass. Structures can show the parent of a compound that is named as a salt.
Tests used:
[1] = test system: avian influenza virus H9N2; assay: microbe, parasite or virus in culture; format: cell-based; settings: H9N2, MDCK; for OD value (A): MTT; for inhibition at 39.06 µg/mL / inhibition at 78.12 µg/mL / inhibition at 156.25 µg/mL / IC50: Influenza A virus; for inhibition at 39.06 µg/mL / inhibition at 78.12 µg/mL / inhibition at 156.25 µg/mL: H9N2; for IC50: H9N2 virus, MDCK cells
MDCK cells = assay: Toxicity of the tested substance on MDCK cells, MTT method; settings: OD 570 nm, 3 days
[2] = test system: dry yeast induced fever in rats; assay: Antipyretic effect, dry yeast induced fever in rats, rectal temperature; format: in vivo, SD rats
[3] = test system: avian influenza virus H7N7; assay: microbe, parasite or virus in culture; format: cell-based; settings: H7N7, MDCK; for OD value (A): MTT; for inhibition at 39.06 µg/mL / inhibition at 78.12 µg/mL / inhibition at 156.25 µg/mL / IC50: unidentified influenza virus; for inhibition at 39.06 µg/mL / inhibition at 78.12 µg/mL / inhibition at 156.25 µg/mL: H7N7; for IC50: H7N7 virus, MDCK cells
[4] = 39.06 μg/ml, first of 2 experiments
[5] = 39.06 μg/ml, second of 2 experiments
[6] = 78.12 μg/ml, first of 2 experiments
[7] = 78.12 μg/ml, second of 2 experiments
[8] = 156.25 μg/ml, first of 2 experiments
[9] = 156.25 μg/ml, second of 2 experiments

NC12CC3CC(CC(C3)C1)C2 [amantadine]
OD value (A) [1, 4]: 0.37 ± 0.02 A | OD value (A) [1, 5]: 0.32 ± 0.03 A | OD value (A) [1, 6]: 0.64 ± 0.05 A | OD value (A) [1, 7]: 0.46 ± 0.03 A | OD value (A) [1, 8]: 0.71 ± 0.07 A | OD value (A) [1, 9]: 0.68 ± 0.15 A | inhibition at 39.06 µg/mL [1, 4]: 34% | inhibition at 39.06 µg/mL [1, 5]: 27% | inhibition at 78.12 µg/mL [1, 6]: 65% | inhibition at 78.12 µg/mL [1, 7]: 42% | inhibition at 156.25 µg/mL [1, 8]: 72% | inhibition at 156.25 µg/mL [1, 9]: 66% | IC50 ([1]; first of 2 experiments): 63 µg/mL (≈ 417 µM) | IC50 ([1]; second of 2 experiments): 66 µg/mL (≈ 436 µM) | OD value (A) (MDCK cells; 39.06 μg/ml): 1.20 ± 0.04 A | OD value (A) (MDCK cells; 78.12 μg/ml): 1.05 ± 0.02 A | OD value (A) (MDCK cells; 156.25 μg/ml): 0.96 ± 0.05 A

CC(=O)Oc1ccccc1C(=O)O [Aspirin]
rectal temperature ([2]; 100 mg/kg by gavage 0.5 h and […] after pyrogen, baseline value, 1 h before the injection of pyrogen, n = 5): 37.8 °C | rectal temperature ([2]; 100 mg/kg by gavage, 1 h after the injection of pyrogen): 38.0 °C | rectal temperature ([2]; 100 mg/kg by gavage, 2 h after the injection of pyrogen): 37.5 °C | rectal temperature ([2]; 100 mg/kg by gavage, 3 h after the injection of pyrogen): 37.7 °C | rectal temperature ([2]; 100 mg/kg by gavage, 4 h after the injection of pyrogen): 37.8 °C | rectal temperature ([2]; 100 mg/kg by gavage, 5 h after the injection of pyrogen): 38.1 °C | rectal temperature ([2]; 100 mg/kg by gavage, 6 h after the injection of pyrogen): 38.1 °C | rectal temperature ([2]; 100 mg/kg by gavage, 7 h after the injection of pyrogen): 38.3 °C | rectal temperature ([2]; 100 mg/kg by gavage, 8 h after the injection of pyrogen): 38.5 °C | rectal temperature ([2]; 100 mg/kg by gavage, 9 h after the injection of pyrogen): 38.8 °C | time for which the effect of reducing the body temperature was maintained ([2]; 100 mg·kg^−1, starting from […] after the injection of the pyrogen): 4 h

NC12CC3CC(CC(C3)C1)C2 [Adamantanamine, amantadine hydrochloride]
OD value (A) [3, 4]: 0.55 ± 0.04 A | OD value (A) [3, 5]: 0.57 ± 0.07 A | OD value (A) [3, 6]: 0.86 ± 0.08 A | OD value (A) [3, 7]: 0.81 ± 0.04 A | OD value (A) [3, 8]: 1.01 ± 0.07 A | OD value (A) [3, 9]: 0.98 ± 0.09 A | inhibition at 39.06 µg/mL [3, 4]: 36% | inhibition at 39.06 µg/mL [3, 5]: 38% | inhibition at 78.12 µg/mL [3, 6]: 60% | inhibition at 78.12 µg/mL [3, 7]: 55% | inhibition at 156.25 µg/mL [3, 8]: 71% | inhibition at 156.25 µg/mL [3, 9]: 68% | IC50 ([3]; first of 2 experiments): 62 µg/mL | IC50 ([3]; second of 2 experiments): 66 µg/mL

Source: patent publication US11235015B2, “Antiviral Traditional Chinese Medicine composition and preparation method and use i'hereof” (priority 2017, dated 2022)
